One may read the IC50 as the concentration needed to halve the response being measured.

Here are results for 3 compounds from patent US20240400577A1, “MODULATORS OF PROTEIN KINASES” (VIBLIOME THERAPEUTICS, LLC, priority 2021, published 2024).

Common to all, as to test: Kinase panel enzymatic inhibition assay (Nanosyn)
Common to all, as to assay type: biochemical

One experiment has as its target T1, AXL (Homo sapiens, UniProt P30530).
T1 construct: Nanosyn (contract laboratory that ran the panel)
T1 sequence (P30530 26-894): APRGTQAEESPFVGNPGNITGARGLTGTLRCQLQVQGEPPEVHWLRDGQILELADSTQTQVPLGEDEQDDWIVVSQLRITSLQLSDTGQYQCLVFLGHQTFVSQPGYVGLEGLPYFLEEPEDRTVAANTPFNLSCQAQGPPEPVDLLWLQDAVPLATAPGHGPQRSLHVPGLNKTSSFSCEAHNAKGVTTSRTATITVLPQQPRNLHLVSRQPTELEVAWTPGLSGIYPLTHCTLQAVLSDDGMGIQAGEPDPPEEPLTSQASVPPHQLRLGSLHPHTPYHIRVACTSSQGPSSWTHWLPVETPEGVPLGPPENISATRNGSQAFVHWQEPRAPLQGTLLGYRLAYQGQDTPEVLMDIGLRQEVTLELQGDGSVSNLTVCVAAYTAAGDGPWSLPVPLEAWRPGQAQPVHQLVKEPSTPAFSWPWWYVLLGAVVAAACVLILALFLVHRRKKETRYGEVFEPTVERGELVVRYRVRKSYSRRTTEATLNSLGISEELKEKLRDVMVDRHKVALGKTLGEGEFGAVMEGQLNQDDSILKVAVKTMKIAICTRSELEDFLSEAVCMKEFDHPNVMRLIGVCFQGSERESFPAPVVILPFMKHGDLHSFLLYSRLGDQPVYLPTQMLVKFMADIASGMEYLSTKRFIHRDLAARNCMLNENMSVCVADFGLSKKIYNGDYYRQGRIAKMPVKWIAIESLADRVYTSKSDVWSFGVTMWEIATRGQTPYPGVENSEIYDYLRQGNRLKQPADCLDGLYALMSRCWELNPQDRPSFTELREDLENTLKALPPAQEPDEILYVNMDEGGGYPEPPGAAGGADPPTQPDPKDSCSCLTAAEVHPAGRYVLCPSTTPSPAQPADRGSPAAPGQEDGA
Particulars: ATP at Km; 30-minute pre-incubation; read-out: kinase inhibition in terms of IC50, AXL. The method in brief: (§1)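 Read-out is percent inhibition or IC50, obtained by mobility shift, ADP detection or time-resolved fluorescence detection. Each kinase was run with ATP at its Km, and compound at 5 μM was pre-incubated for 30 minutes.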

The next experiment deals with T2, PLK4 (Homo sapiens, UniProt O00444).
T2 construct: Nanosyn (contract laboratory that ran the panel)
T2 sequence (O00444 1-970): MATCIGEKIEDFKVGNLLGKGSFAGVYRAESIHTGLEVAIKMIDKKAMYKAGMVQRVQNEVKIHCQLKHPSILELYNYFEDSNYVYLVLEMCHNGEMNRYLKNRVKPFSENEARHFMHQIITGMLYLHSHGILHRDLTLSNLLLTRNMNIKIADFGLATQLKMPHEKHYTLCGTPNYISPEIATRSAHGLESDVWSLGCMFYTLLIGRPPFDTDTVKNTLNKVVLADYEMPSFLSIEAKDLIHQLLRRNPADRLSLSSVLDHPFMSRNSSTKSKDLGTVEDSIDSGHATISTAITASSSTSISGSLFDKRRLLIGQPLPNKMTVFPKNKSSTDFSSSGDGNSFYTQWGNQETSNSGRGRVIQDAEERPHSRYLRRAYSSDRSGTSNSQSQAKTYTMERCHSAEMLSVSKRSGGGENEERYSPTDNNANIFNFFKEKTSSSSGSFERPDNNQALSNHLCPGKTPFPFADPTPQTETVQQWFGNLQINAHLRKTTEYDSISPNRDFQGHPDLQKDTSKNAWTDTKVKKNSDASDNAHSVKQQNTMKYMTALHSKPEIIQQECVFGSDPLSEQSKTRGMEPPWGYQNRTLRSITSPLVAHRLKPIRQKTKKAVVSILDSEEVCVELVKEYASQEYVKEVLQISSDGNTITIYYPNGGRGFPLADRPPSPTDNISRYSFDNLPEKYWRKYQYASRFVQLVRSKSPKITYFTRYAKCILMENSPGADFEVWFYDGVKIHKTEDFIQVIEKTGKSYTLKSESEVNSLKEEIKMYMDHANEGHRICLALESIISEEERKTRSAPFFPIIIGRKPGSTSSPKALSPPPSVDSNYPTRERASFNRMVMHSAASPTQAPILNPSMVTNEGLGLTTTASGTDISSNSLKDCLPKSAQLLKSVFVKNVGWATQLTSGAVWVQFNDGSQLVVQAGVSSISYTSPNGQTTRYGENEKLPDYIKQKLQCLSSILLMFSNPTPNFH
Particulars: ATP at Km; 30-minute pre-incubation; read-out: kinase inhibition in terms of IC50, PLK4. The method in brief:
as §1

The next experiment deals with T3, TAK1-TAB1 (Homo sapiens, UniProt O43318).
T3 construct: purchased Nanosyn
T3 sequence (O43318 with tags, fused parts or gaps limits assumed): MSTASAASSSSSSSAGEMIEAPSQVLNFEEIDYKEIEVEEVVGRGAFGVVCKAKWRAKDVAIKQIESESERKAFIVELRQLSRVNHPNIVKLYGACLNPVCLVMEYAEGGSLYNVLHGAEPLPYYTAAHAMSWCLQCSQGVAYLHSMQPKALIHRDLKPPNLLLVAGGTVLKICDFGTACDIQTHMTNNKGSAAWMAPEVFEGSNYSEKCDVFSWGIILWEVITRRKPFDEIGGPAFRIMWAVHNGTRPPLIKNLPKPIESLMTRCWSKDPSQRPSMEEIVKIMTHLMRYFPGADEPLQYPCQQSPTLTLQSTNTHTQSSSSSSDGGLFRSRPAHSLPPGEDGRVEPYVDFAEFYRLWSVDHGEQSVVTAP
Particulars: ATP at Km; 30-minute pre-incubation; read-out: kinase inhibition in terms of IC50, TAK1-TAB1. The gist of the method:
as §1

The next experiment has as its target T4, PLK1 (Homo sapiens, UniProt P53350).
T4 construct: Nanosyn (contract laboratory that ran the panel)
Particulars: ATP at Km; 30-minute pre-incubation; read-out: kinase inhibition in terms of IC50, PLK1. The method in brief: as §1

T4 sequence (P53350 whole entry): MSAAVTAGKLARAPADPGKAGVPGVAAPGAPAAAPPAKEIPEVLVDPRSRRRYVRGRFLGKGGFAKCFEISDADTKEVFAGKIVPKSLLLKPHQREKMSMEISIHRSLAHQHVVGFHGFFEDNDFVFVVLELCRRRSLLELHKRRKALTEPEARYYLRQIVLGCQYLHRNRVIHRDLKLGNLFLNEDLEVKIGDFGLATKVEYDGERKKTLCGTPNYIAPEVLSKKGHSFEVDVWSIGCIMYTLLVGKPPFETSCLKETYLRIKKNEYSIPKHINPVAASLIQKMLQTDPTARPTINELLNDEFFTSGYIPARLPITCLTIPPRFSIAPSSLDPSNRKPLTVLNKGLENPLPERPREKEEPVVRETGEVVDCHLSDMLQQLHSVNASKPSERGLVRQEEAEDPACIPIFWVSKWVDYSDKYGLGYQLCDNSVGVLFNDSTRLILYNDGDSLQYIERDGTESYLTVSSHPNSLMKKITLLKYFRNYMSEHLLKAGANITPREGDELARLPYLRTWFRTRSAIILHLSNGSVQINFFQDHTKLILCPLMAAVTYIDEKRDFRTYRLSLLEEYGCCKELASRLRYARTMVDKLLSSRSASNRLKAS

For the compound `COc1cc2nccc(Oc3ccc(NC(=O)c4cc(S(C)(=O)=O)n(-c5ccc(F)cc5)n4)cc3)c2cc1OC` [Ex72, N-(4-((6,7-dimethoxyquinolin-4-yl)oxy)phenyl)-1-(4-fluorophenyl)-5-(methylsulfonyl)-1H-pyrazole-3-carboxamide], the IC50 on AXL was < 500 nM; on PLK4, 500 to 1000 nM; on TAK1-TAB1 it was ≥ 10 µM; on PLK1 it was ≥ 10 µM.

`COc1cc2nccc(Oc3ccc(NC(=O)c4cc(S(C)(=O)=O)n(-c5ccc(F)cc5)n4)cc3F)c2cc1OC` [Ex73, N-(4-((6,7-dimethoxyquinolin-4-yl)oxy)-3-fluorophenyl)-1-(4-fluorophenyl)-5-(methylsulfonyl)-1H-pyrazole-3-carboxamide]: the IC50 at AXL is < 500 nM; at PLK4, < 500 nM; at TAK1-TAB1, ≥ 10 µM; on PLK1, ≥ 10 µM.

Turning to `COc1cc2nccc(Oc3ccc(NC(=O)c4cc(S(C)(=O)=O)n(-c5ccc(F)cc5)n4)c(F)c3)c2cc1OC` [Ex71, N-(4-((6,7-dimethoxyquinolin-4-yl)oxy)-2-fluorophenyl)-1-(4-fluorophenyl)-5-(methylsulfonyl)-1H-pyrazole-3-carboxamide], the IC50 at AXL was < 500 nM; at PLK4, 1000 to 10000 nM; at TAK1-TAB1, ≥ 10 µM; at PLK1, ≥ 10 µM.
